Measured values: patent US20020091139A1 (DAMON TODD HOLDINGS, L.L.C., priority 1997, published 2002)

Experiments:
symptomatic asthmatics = experiment: Double blind placebo-controlled 30-week trial of HCQ in moderate symptomatic asthma; type: in vivo, human
From the text: Symptomatic asthmatics (mean duration>11 years) on stable doses of at least 6 puffs of inhaled steroid per day and p.r.n. bronchodilator (BD) were studied. […] Changes from baseline mean FEV-1 comprised the primary efficacy variable. Other objective variables included daily peak flows, BD usage and setum IgE level; symptom scores and physician global (safety and tolerance) assessments were also obtained. Subjective efficacy variables (rated from 0-3) include breathing restrictions (wheezing, coughing, chest tightness and/or breathlessness), revived need for BD at 6 hours, and nocturnal asthma.

[1] = test system: neutrophil superoxide production; conditions: also in peripheral blood monocytes; cited from earlier work
human lung = conditions: ex vivo human lung; cited from earlier work
platelet aggregation = conditions: cited from earlier work
[2] = test system: steroid-dependent asthmatics (SDA) and non-steroid-dependent asthmatics (NSDA); experiment: Follow-up observations of asthmatics treated long-term with HCQ (SDA and NSDA groups); type: in vivo, human
From the text: Follow-up observations carried out over the last four years among patients treated with HCQ continue to encourage further research. In Table I and II, data concerning the course of 23 steroid-dependent asthmatics (SDA) who have been followed for at least six months on therapy is presented. Spirometric data from these patients is summarized on page 2 of Table I. In the summary, two data groups are reported: the first includes all data points generated and compares each time point with t=0; the second is restricted to the 17 patients for whom data is complete at all time points. The findings are similar for both groups: both FVC and FEV-1 increase both a significant amount (about 10%) and to a degree that is statistically significant as well (using Wilcoxon Signed-Rank probability testing). These increases occurred despite a taper in prednisone outlined in Table I and detailed in Table II. Average daily oral steroid dosage was reduced by 60%, while objective spirometric flow measures and general health improved markedly.
Changes in severity of asthma in non-steroid-dependent asthmatics (NSDA) are depicted in Table III. In Table III, spirometric flow data is presented. […] Probability testing (Wilcoxon Signed-Rank) in this group achieves significant change from baseline measures by month six and continued improvement is noted throughout the time of treatment.
2] […] In neither the NSDA group (Table I) nor in the SDA group (Table II) did spirometric flows (as measured by FEV-1) improve to a statistically significant degree at three months. […] In Table IV, data regarding the frequency of rescue-intervention in the NSDA group is reviewed. […] The course of patient, presented in Table V is illustrative of the reproducibility of the delay in onset of action seen in severe asthmatics. This patient was started on HCQ due to very labile asthma requiring frequent ER visits and oral steroid bursts (see Table VI). On HCQ they did better, but became pregnant (against medical advice) and the drug was discontinued. Subsequently, they did quite poorly necessitating restart of alternate-day oral steroids which were maintained during the latter part of their pregnancy. HCQ was restarted at their request following delivery. Again, no clear effect in the person was noted after three months, but after seven months substantial improvement was noted despite appreciable reduction in the dose of their alternate-daily oral steroids.
In patients with normal IgE levels, changes were not significant either in amount (19%) nor by statistical criteria. Significant declines in IgE were virtually completely confined to that segment of the patients who entered treatment with elevated IgE levels. […] These clinical observations are supported by in vitro studies carried out recently by Seggev and co-workers. […] J Immunol 1993;150(8):62A.

influenza and adenovirus = conditions: personal communication; cited from earlier work
[3] = test system: T-cells and monocytes; human macrophages; conditions: cited from earlier work
HIV virus = conditions: T cells and monocytes; cited from earlier work
[4] = test system: severe symptomatic non-steroid dependent and steroid-dependent asthmatics; experiment: Open label 28-week trial of HCQ in severe asthma; type: in vivo, human; conditions: for mean IgE level: ten patients
Protocol: Annals of Allergy 1992;68(1):80 (abstract #40). The initial trial involved four severe symptomatic non-steroid dependent and seven steroid-dependent asthmatics in an open label 28-week trial at doses of 300-400 mg/d. Evaluation measures included daily symptom diary scores of six symptoms, subjective global evaluation, spirometric flow studies, and cumulative monthly steroid dosages.

[5] = steroid-dependent asthmatics, at least six months on therapy
[6] = group as a whole, 28 weeks, 300-400 mg/d, p<0.01
[7] = non-steroid-dependent asthmatics, p<0.05
[8] = steroid-dependent patients, not significant

## CCN(CCO)CCCC(C)Nc1ccnc2cc(Cl)ccc12 (stereo not shown) [HCQ, Hydroxychloroquine]
Symptomatic asthmatics; 30 weeks
  tolerability: well tolerated without notable side-effects
Symptomatic asthmatics; HCQ group n=8 (4 on placebo)
  patients requiring oral steroid rescue interventions: 2 patients
Symptomatic asthmatics; HCQ group, baseline
  mean IgE level: 240 lU/ml
Symptomatic asthmatics; HCQ group, on therapy
  mean IgE level: 125 lU/ml
Symptomatic asthmatics; HCQ group, p<0.04
  evening peak flows rise: 14.2%
Symptomatic asthmatics; HCQ group, p<0.05
  mean IgE level decline: 48%
Symptomatic asthmatics; bronchodilator usage, HCQ group, p<0.03
  BD usage fall: 18.6%
Symptomatic asthmatics; last 2 visits on therapy vs baseline, HCQ group n=8, p<0.05
  mean FEV-1 increase: 10.8%
Symptomatic asthmatics; sparing of HDL levels
  effect on cholesterol: mild hypocholesterolemic effects
[1]
  neutrophil superoxide production and release: markedly reduce
Human lung
  histamine release: inhibits
  leukotriene release: inhibits
Platelet aggregation
  platelet aggregation: inhibit
[2]; 11 non-steroid-dependent asthmatics, significant from month six
  forced vital capacity and FEV-1: very significant improvements
[2]; NSDA group, until after three months therapy
  rescue-interventions (normalized rates): no significant fall
[2]; patients in general, pre- vs post-treatment
  decrease in serum IgE levels: ~40%
[2]; patients with normal IgE levels, not significant
  change in serum IgE levels: 19%
[2]; severe asthmatics
  onset of significant effects: only after three months
[2]; steroid-dependent asthmatics
  reduction of average daily oral steroid dosage: 60%
[2]; [5]
  FEV-1 increase: about 10%
  FVC increase: about 10%
Influenza and adenovirus
  infection by influenza and adenovirus: inhibits
[3]; T-cells and monocytes in vitro
  release of IL-1 and IL-6: inhibit
[3]; human macrophages in vitro
  release of tumor necrosis factor: inhibit
HIV virus
  replication of HIV virus: actively inhibits
[4]; drug interaction
  effect on plasma theophylline levels: no significant effect
[4]; during treatment, p<0.05
  mean IgE level: 339 IU/ml
[4]; [6]
  mean FEV-1 increase: 17%
  mean FVC increase: 10%
[4]; group as a whole, p<0.05
  mean of each of six symptom scores: declined significantly
[4]; [7]
  mean FEV-1 rise: 32%
  mean FVC rise: 19%
  mean symptom scores for four of five symptoms: declined from baseline
[4]; pretreatment
  mean IgE level: 645 IU/ml
[4]; steroid-dependent patients, at entry
  cumulative mean monthly steroid dosage required: 383 mg
[4]; steroid-dependent patients, at week 28
  cumulative mean monthly steroid dosage required: 191 mg
[4]; steroid-dependent patients, entry to week 28, p<0.01
  decrease of cumulative mean monthly steroid dosage required: 50%
[4]; [8]
  mean FEV-1 increase: 9%
  mean FVC increase: 7%
[4]; steroid-dependent patients, p<0.05
  symptom scores: two of five symptom scores improved
